Test results taken from US20260242416A1, “ANTIMICROBIAL PEPTIDES” (priority 2023, published 2026).
Converted amounts (≈) assume the structure as drawn. Where a SMILES comes first, the peptide text is derived from it.

What was measured:
E. coli ATCC 25922 = assay type: cell-based, Escherichia coli; settings: ATCC 25922
How it was run: (§1)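 CLSI broth microdilution adapted for cationic peptides, in Mueller-Hinton broth, inoculum 2-8×10^5 cfu/mL. Peptides serially diluted from 128 to 0.5 μg/mL in polypropylene plates, incubated 20-24 h at 37° C. MIC = lowest concentration without visible growth.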

[1] = test system: Salmonella enterica serovar Enteritidis (human clinical isolate); assay type: cell-based; settings: serovar Enteritidis (human clinical isolate)
How it was run: as §1

S. aureus ATCC 29213 = assay type: cell-based, Staphylococcus aureus; settings: ATCC 29213
How it was run: as §1

[2] = test system: E. coli ATCC 25922, Salmonella Enteritidis, S. aureus ATCC 29213; assay: Broth microdilution, panel result (at least one / all strains), Example 2; assay type: cell-based; parameters: key to inhibitory activity (asterisk): *Indicates inhibitory activity; settings: Table 14; against at least one of E. coli ATCC 25922, Salmonella Enteritidis, S. aureus ATCC 29213
Experimental: The antimicrobial activity of the putative AMPs was determined by a broth microdilution assay as described by the Clinical and Laboratory Standards Institute, with the published adaptations for testing of cationic peptides. Escherichia coli 25922 and Staphylococcus aureus 29213 isolates were purchased from the American Type Culture Collection (ATCC; Manassas, VA, USA). A human clinical isolate of Salmonella enterica serovar Enteritidis was provided by the BC Centre for Disease Control. Bacteria from stocks stored at −80° C. were streaked onto nonselective Columbia blood agar with 5% sheep blood (Oxoid) and incubated overnight at 37° C. Next, 2-4 colonies were streaked onto a new agar plate to ensure uniform health of colonies used in the broth microdilution assay. Isolated colonies were suspended in MHB and the optical density was measured with a spectrophotometer to create an initial inoculum concentration of approximately 1×10^8 cfu/mL. The inoculum was diluted 1:250 to a final concentration of 2-8×10^5 cfu/mL, which was confirmed by performing a Total Viability Count (TVC). The TVC consisted of plating a 1:1000 dilution of the final inoculum on nonselective media and was also used to confirm the health and purity of the inoculum in each trial.
Lyophilized 80 μg peptide aliquots synthesized by GenScript (Piscataway, NJ, USA) were resuspended to 1.28 mg/mL with UltraPure water (Thermo Fisher Scientific, Waltham, MA, USA) and serially diluted in polypropylene 96-well microtiter plates (Greiner Bio-One #650261, Kremsmunster, Austria) from 128 down to 0.5 μg/mL. Two columns per plate were reserved for growth and sterility controls. Inoculum was added to the wells containing the peptide and the growth control. Plates were incubated for 20-24 h at 37° C. The minimum inhibitory concentration (MIC) was determined as the lowest peptide concentration where there was no visible bacterial growth.

SMILES | MIC (ug/mL) E. coli (E. coli ATCC 25922) [µg/mL] | MIC (ug/mL) S. Enteritidis [1] [µg/mL] | MIC (ug/mL) S. aureus (S. aureus ATCC 29213) [µg/mL] | inhibitory activity (asterisk) [2]
CC[C@H](C)[C@H](NC(=O)[C@H](C)NC(=O)[C@H](CCCNC(=N)N)NC(=O)[C@@H](N)CCCNC(=N)N)C(=O)N[C@@H](Cc1ccccc1)C(=O)N[C@@H](C)C(=O)N[C@@H](CO)C(=O)N[C@H](C(=O)N[C@@H](CCCNC(=N)N)C(=O)NCC(=O)N[C@@H](Cc1ccc(O)cc1)C(=O)N[C@@H](CC(C)C)C(=O)NCC(=O)N[C@@H](CC(C)C)C(=O)N[C@@H](CCCNC(=N)N)C(=O)N[C@@H](CCCCN)C(=O)N[C@@H](CCCNC(=N)N)C(=O)O)[C@@H](C)CC [MyGu1, RRAIFASIRGYLGLRKR] (H-RRAIFASIRGYLGLRKR-OH; N-terminus and C-terminus assumed) |  |  |  | 881.* RRAIFASIRGYLGLRKR
CC[C@H](C)[C@H](NC(=O)CN)C(=O)N[C@@H](CC(C)C)C(=O)N[C@@H](CCCNC(=N)N)C(=O)N[C@@H](CC(C)C)C(=O)N[C@H](C(=O)N[C@H](C(=O)N[C@@H](CCCNC(=N)N)C(=O)N[C@@H](CCCNC(=N)N)C(=O)N[C@@H](Cc1ccccc1)C(=O)N[C@@H](CCCNC(=N)N)C(=O)N[C@@H](Cc1ccccc1)C(=O)N[C@@H](CO)C(=O)N1CCC[C@H]1C(=O)N[C@H](C(=O)N[C@@H](CC(N)=O)C(=O)N[C@@H](CC(C)C)C(=O)N[C@@H](CC(N)=O)C(=O)N[C@@H](CCCNC(=N)N)C(=O)N[C@@H](Cc1ccc(O)cc1)C(=O)N[C@H](C(=O)N[C@H](C(=O)N[C@@H](C)C(=O)N[C@@H](CCCNC(=N)N)C(=O)N[C@@H](CC(C)C)C(=O)N[C@H](C(=O)N[C@@H](CO)C(=O)NCC(=O)N[C@H](C(=O)N1CCC[C@H]1C(=O)O)C(C)C)C(C)C)C(C)C)[C@@H](C)O)[C@@H](C)O)[C@@H](C)O)C(C)C [BoAr6] (H-GILRLVTRRFRFSPTNLNRYTVARLVSGVP-OH; N-terminus and C-terminus assumed) |  |  |  | 790.* GILRLVTRRFRFSPTNLNRYTVARLVSGVP
CC(C)C[C@H](NC(=O)CN)C(=O)N[C@@H](CC(C)C)C(=O)NCC(=O)N[C@@H](CCCCN)C(=O)N[C@H](C(=O)N[C@@H](CC(C)C)C(=O)NCC(=O)N[C@H](C(=O)NCC(=O)N[C@@H](CCCCN)C(=O)N[C@@H](CCCCN)C(=O)N[C@H](C(=O)N[C@@H](CC(C)C)C(=O)N[C@@H](CS)C(=O)NCC(=O)N[C@H](C(=O)N[C@H](C(=O)NCC(=O)N[C@@H](CCCNC(=N)N)C(=O)N[C@@H](CCC(=O)O)C(=O)N[C@@H](CCCNC(=N)N)C(=O)N[C@@H](CS)C(=O)N[C@@H](CCC(N)=O)C(=O)O)[C@@H](C)O)C(C)C)C(C)C)C(C)C)C(C)C [PeNi5] (H-GLLGKVLGVGKKVLCGVTGRERCQ-OH; N-terminus and C-terminus assumed) |  |  |  | 359.* GLLGKVLGVGKKVLCGVTGRERCQ
CC[C@H](C)[C@H](NC(=O)[C@@H](N)C(C)C)C(=O)N1CCC[C@H]1C(=O)N[C@@H](Cc1ccccc1)C(=O)N[C@H](C(=O)N[C@@H](C)C(=O)N[C@@H](CO)C(=O)N[C@H](C(=O)N[C@@H](C)C(=O)N[C@@H](C)C(=O)N[C@@H](CCC(=O)O)C(=O)N[C@@H](CCSC)C(=O)N[C@@H](CCSC)C(=O)N[C@@H](Cc1c[nH]cn1)C(=O)N[C@@H](Cc1c[nH]cn1)C(=O)N[C@H](C(=O)N[C@@H](Cc1ccc(O)cc1)C(=O)N[C@@H](CS)C(=O)N[C@@H](C)C(=O)N[C@@H](C)C(=O)N[C@@H](CO)C(=O)N[C@@H](CCCCN)C(=O)N[C@@H](CCCNC(=N)N)C(=O)N[C@@H](CS)C(=O)N[C@@H](CCCCN)C(=O)N[C@@H](CC(N)=O)C(=O)O)C(C)C)C(C)C)C(C)C [PeNi7] (H-VIPFVASVAAEMMHHVYCAASKRCKN-OH; N-terminus and C-terminus assumed) |  |  |  | 1088.* VIPFVASVAAEMMHHVYCAASKRCKN
CC[C@H](C)[C@H](NC(=O)[C@H](CO)NC(=O)[C@@H]1CCCN1C(=O)[C@H](CC(C)C)NC(=O)[C@@H](NC(=O)[C@H](CCCCN)NC(=O)[C@H](C)NC(=O)[C@H](C)NC(=O)[C@H](CC(C)C)NC(=O)CNC(=O)[C@H](C)NC(=O)[C@@H](NC(=O)[C@@H](NC(=O)[C@@H]1CCCN1C(=O)[C@H](CC(C)C)NC(=O)[C@H](Cc1ccccc1)NC(=O)[C@H](CCCNC(=N)N)NC(=O)[C@H](CCC(N)=O)NC(=O)[C@H](CCC(=O)O)NC(=O)[C@@H](N)CCC(=O)O)C(C)C)C(C)C)C(C)C)C(=O)N[C@H](C(=O)N[C@@H](CS)C(=O)N[C@@H](C)C(=O)N[C@H](C(=O)N[C@H](C(=O)N[C@@H](CCCCN)C(=O)N[C@@H](CCCCN)C(=O)N[C@@H](CS)C(=O)O)[C@@H](C)O)C(C)C)[C@@H](C)CC [RaSy2] (H-EEQRFLPVVAGLAAKVLPSIICAVTKKC-OH; N-terminus and C-terminus assumed) |  |  |  | 673.* EEQRFLPVVAGLAAKVLPSIICAVTKKC

The next lines start with results.

MIC (ug/mL) E. coli (E. coli ATCC 25922) [µg/mL] | MIC (ug/mL) S. Enteritidis [1] [µg/mL] | MIC (ug/mL) S. aureus (S. aureus ATCC 29213) [µg/mL] | SMILES | inhibitory activity (asterisk) [2]
16 to 32 | 64 to 128 | 64 to 128 | CC[C@H](C)[C@H](NC(=O)CN)C(=O)N[C@@H](Cc1ccccc1)C(=O)N[C@@H](CO)C(=O)N[C@@H](CC(C)C)C(=O)N[C@H](C(=O)N[C@@H](CCCCN)C(=O)NCC(=O)N[C@@H](C)C(=O)N[C@@H](C)C(=O)N[C@@H](CCCCN)C(=O)N[C@H](C(=O)N[C@H](C(=O)N[C@@H](C)C(=O)N[C@@H](CCCCN)C(=O)NCC(=O)N[C@@H](CC(C)C)C(=O)NCC(=O)O)C(C)C)C(C)C)[C@@H](C)CC [PeNi3, GIFSLIKGAAKVVAKGLG] (H-GIFSLIKGAAKVVAKGLG-OH; N-terminus and C-terminus assumed) | 1096.* GIFSLIKGAAKVVAKGLG
8 to 16 | 64 (≈ 32.4 µM) | 32 (≈ 16.2 µM) | CC[C@H](C)[C@H](NC(=O)[C@H](CCCCN)NC(=O)[C@H](CCCCN)NC(=O)CNC(=O)[C@H](C)NC(=O)CNC(=O)[C@H](CC(C)C)NC(=O)[C@H](CC(C)C)NC(=O)CNC(=O)[C@H](CO)NC(=O)[C@H](CC(C)C)NC(=O)[C@H](CC(C)C)NC(=O)CN)C(=O)N[C@H](C(=O)N[C@@H](CS)C(=O)NCC(=O)N[C@@H](CC(C)C)C(=O)N[C@@H](CO)C(=O)NCC(=O)N[C@@H](CCSC)C(=O)N[C@@H](CS)C(=O)O)C(C)C [OdMa3] (H-GLLSGLLGAGKKIVCGLSGMC-OH; N-terminus and C-terminus assumed) | 59.* GLLSGLLGAGKKIVCGLSGMC
32 (≈ 15.5 µM) | > 128 | > 128 | CC[C@H](C)[C@H](NC(=O)CN)C(=O)N[C@@H](Cc1ccccc1)C(=O)NCC(=O)NCC(=O)N[C@@H](Cc1c[nH]cn1)C(=O)N[C@@H](CC(C)C)C(=O)N[C@@H](CCCCN)C(=O)N[C@H](C(=O)NCC(=O)N[C@@H](CCCCN)C(=O)N[C@@H](CCCCN)C(=O)N[C@H](C(=O)N[C@@H](C)C(=O)N[C@@H](CS)C(=O)NCC(=O)N[C@@H](CC(C)C)C(=O)N[C@@H](CO)C(=O)NCC(=O)N[C@@H](CC(C)C)C(=O)N[C@@H](CS)C(=O)O)[C@@H](C)CC)C(C)C [OdTo2] (H-GIFGGHLKVGKKIACGLSGLC-OH; N-terminus and C-terminus assumed) | 139.* GIFGGHLKVGKKIACGLSGLC
64 to 128 | > 128 | 128 (≈ 59.4 µM) | CC[C@H](C)[C@H](NC(=O)[C@H](CCCNC(=N)N)NC(=O)[C@H](CCCNC(=N)N)NC(=O)[C@@H]1CCCN1C(=O)[C@H](CS)NC(=O)[C@H](CS)NC(=O)[C@H](Cc1ccc(O)cc1)NC(=O)[C@H](CS)NC(=O)[C@H](CC(C)C)NC(=O)[C@@H](NC(=O)[C@H](CCCNC(=N)N)NC(=O)[C@@H](NC(=O)[C@H](Cc1ccccc1)NC(=O)[C@H](C)N)C(C)C)[C@@H](C)CC)C(=O)N[C@@H](CCCCN)C(=O)N[C@@H](CCCNC(=N)N)C(=O)N[C@@H](CCCNC(=N)N)C(=O)O [TeRu2, AFVRILCYCCPRRIKRR] (H-AFVRILCYCCPRRIKRR-OH; N-terminus and C-terminus assumed) | 994.* AFVRILCYCCPRRIKRR
8 to 16 | 64 to 128 | 8 to 16 | CC[C@H](C)[C@H](NC(=O)CN)C(=O)N[C@@H](CC(C)C)C(=O)N[C@@H](CO)C(=O)NCC(=O)N[C@@H](CC(C)C)C(=O)N[C@@H](CC(C)C)C(=O)NCC(=O)N[C@@H](C)C(=O)NCC(=O)N[C@@H](CCCCN)C(=O)N[C@@H](CCCCN)C(=O)N[C@H](C(=O)N[C@H](C(=O)N[C@@H](CS)C(=O)NCC(=O)N[C@@H](CC(C)C)C(=O)N[C@@H](CO)C(=O)NCC(=O)N[C@@H](CC(C)C)C(=O)N[C@@H](CS)C(=O)O)C(C)C)[C@@H](C)CC [OdMa5] (H-GILSGLLGAGKKIVCGLSGLC-OH; N-terminus and C-terminus assumed) | 1091.* GILSGLLGAGKKIVCGLSGLC
